Legend:
PERK = target: T1, PERK (Rattus norvegicus, UniProt Q9Z1Z1); assay type: in vivo
T1 construct: the PERK shRNA lentivirus was stereotacticaly injected to the IC of adult rats; from tissue; host or cells: insular cortex of adult male Wistar Hola rats, in vivo
T1 sequence (Q9Z1Z1 28-1108): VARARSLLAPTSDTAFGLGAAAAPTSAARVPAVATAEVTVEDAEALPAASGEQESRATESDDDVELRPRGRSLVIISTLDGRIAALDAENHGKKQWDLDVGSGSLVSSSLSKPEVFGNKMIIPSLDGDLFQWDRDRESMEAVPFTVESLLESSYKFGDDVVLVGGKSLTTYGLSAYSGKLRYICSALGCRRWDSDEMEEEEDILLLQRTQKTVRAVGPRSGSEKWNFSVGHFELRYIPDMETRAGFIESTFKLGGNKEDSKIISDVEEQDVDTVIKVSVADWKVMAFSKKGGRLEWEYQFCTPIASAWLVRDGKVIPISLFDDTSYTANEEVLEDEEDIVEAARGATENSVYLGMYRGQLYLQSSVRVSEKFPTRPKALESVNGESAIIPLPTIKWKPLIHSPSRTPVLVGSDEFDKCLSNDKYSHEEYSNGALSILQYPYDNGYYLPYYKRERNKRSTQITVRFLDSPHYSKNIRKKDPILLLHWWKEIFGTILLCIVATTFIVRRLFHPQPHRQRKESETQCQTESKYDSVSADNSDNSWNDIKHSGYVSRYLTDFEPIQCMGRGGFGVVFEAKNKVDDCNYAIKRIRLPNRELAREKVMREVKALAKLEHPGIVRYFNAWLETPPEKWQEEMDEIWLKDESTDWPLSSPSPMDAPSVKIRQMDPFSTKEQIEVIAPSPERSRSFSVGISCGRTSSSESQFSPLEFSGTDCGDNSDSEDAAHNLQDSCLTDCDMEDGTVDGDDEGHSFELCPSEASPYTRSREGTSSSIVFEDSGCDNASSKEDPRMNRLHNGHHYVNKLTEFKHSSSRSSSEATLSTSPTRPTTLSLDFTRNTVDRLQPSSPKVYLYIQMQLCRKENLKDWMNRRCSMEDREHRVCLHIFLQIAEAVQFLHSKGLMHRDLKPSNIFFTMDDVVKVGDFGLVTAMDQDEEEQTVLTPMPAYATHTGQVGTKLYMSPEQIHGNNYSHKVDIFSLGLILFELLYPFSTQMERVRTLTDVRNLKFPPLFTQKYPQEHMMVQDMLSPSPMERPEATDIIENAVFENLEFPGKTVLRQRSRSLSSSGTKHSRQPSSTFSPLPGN
Description: Briefly, the rats were anesthetized by administration of equithesin (0.3 ml/100 g), comprising 2.12% (w/v) MgSO4, 10% (v/v) ethanol, 39.1% (v/v) propyleneglycol, 0.98% (w/v) sodium pentobarbital, and 4.2% (w/v) chloral hydrate. They were restrained in a stereotactic frame (Steolting Europe, Dublin-Ireland) and stainless steel guide cannulae (23-gauge) were bilaterally implanted into the insular cortex, angled at (with reference to bregma), anteroposterior=+1.2 mm, lateral±5.5 mm, and ventral 5.0 mm (1 mm ahead of injecting cannula). Two skull screws were inserted into the skull, and acrylic dental cement was applied to secure the cannulae in position. A 28 gauge stylus was inserted into each guide cannula to prevent clogging. The rats were allowed a week in individual cages to recover from the surgery, before the experimental manipulation. PERK inhibitor GSK2606414 (Axten et al., 2012) was dissolved in DMSO and further diluted in saline to a final DMSO concentration of 0.5%. A total of 1 μl of 100 nM GSK2606414 or vehicle was infused bilaterally. For microinfusion, the stylus was removed from the guide cannula and a 28 gauge injection cannula was carefully inserted, to extend 1.0 mm beyond the tip of the guide cannula. The injection cannula was connected via PE20 tubing to a Hamilton syringe (Hamilton) driven by a CMA/100 microinjection pump (Carnegie Medicine), to provide an injection rate of 1 μl/min. After 1 min of infusion, the injection cannula was kept in the guide cannula for an additional minute to minimize dragging of infused solutes along the injection tract. Locations of cannula were verified in 30 μm coronal sections.
Aversion to the novel taste, 0.3% NaCl was measured as described below.

p-eIF2α = test: Immunoblot of p-eIF2α levels in rat insular cortex (IC); assay type: in vivo; details: 1 μl, 100 nM stereotactic injection to the IC, compared to vehicle; n=15; data not shown
Description: For virus infusions, rats were first anesthetized with Ketamine (120 mg/kg) and Xylazine (6 mg/kg) and placed into a stereotactic frame (Steolting Europe, Dublin—Ireland) (Using a 32-gauge stainless steel injector attached to a stereotactic infusion pump, rats received 1 μl of lentivirus encoding PERK shRNA or lentivirus harboring a scrambled sequence over 10 min into the insular cortex (anteroposterior, +1.2 mm relative to bregma; lateral, ±5.5 mm; ventral, −6.0 mm) according to the atlas of Paxinos, G. & Watson, C. (2006). The injector was lets in place for 5 min before and after infusion to minimize fluid retraction. The rats were allowed at least 7 days to recover from the surgery before any behavior experiments were conducted.
The rats were cannulated as described in Barki-Harrington et al. (2009). Briefly, the rats were anesthetized by administration of equithesin (0.3 ml/100 g), comprising 2.12% (w/v) MgSO4, 10% (v/v) ethanol, 39.1% (v/v) propyleneglycol, 0.98% (w/v) sodium pentobarbital, and 4.2% (w/v) chloral hydrate. […]
At the end of the behavioral procedure, the brains were removed, and snap-frozen in liquid nitrogen. […] Protein content was determined with the BCA Protein Assay Kit (GE Healthcare). […]

Cn1cc(-c2ccc3c(c2)CCN3C(=O)Cc2cccc(C(F)(F)F)c2)c2c(N)ncnc21 [GSK2606414, 7-methyl-5-(1-{[3-(trifluoromethyl)phenyl]acetyl}-2,3-dihydro-1H-indol-5-yl)-7H-pyrrolo[2,3-d]pyrimidin-4-amine]
aversion index (CTA memory) (PERK; 0.3% NaCl + 0.075 M LiCl i.p., 1 μl 100 nM into IC 20 min prior to novel taste, n=8): 72%±3.5 | extinction of CTA (PERK; single injection of 100 nM into IC during CTA): not affected | total drinking volumes (PERK; vs vehicle group throughout the behavioral procedure, data not shown): similar | reduction in p-eIF2α levels (p-eIF2α): 40%

Source: patent US10246712B2, “Genetic or pharmacological reduction of PERK enhances cortical- and hippocampus-dependent cognitive function” (Carmel-Haifa University Economic Corp. Ltd, priority 2015, dated 2019)
